Values quoted from earlier work as cited in US11085047B2, “Synthetic cannabinoid compounds for treatment of substance addiction and other disorders” (MyMD Pharmaceuticals (Florida), Inc., priority 2018, dated 2021).

Tests used:
[1] = 2.5 to 5 mg; three patients
[2] = several clinical studies

CCCCCc1cc(O)c2c(c1)OC(C)(C)[C@@H]1CCC(C)=C[C@@H]21 [THC, tetrahydrocannabinol]
bronchoconstriction after inhalation (inhalation of THC): Very few patients developed bronchoconstriction
anti-asthmatic effect (oral THC (15 mg), acute studies): approximately correspond to those obtained with therapeutic doses of common bronchodilator drugs
effect on pruritus due to liver diseases [1]: effective
mood in reactive depression [2]: improvement of mood
